From ChEMBL document CHEMBL1201862, “PubChem BioAssay data set” (2004)
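Protocol summary: plate cells (96-well), add compound at 5 concentrations, incubate 48 h, interpolate endpoints linearly. At the GI50, growth is halved.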 Activity calls are given as the source filed them. Cut-off read from the data, not from the text of the source: active = GI50 up to about 1.1 µM and inactive = higher.

Legend:
Assay in all cases: growth of human tumour cells (NCI), 48 h
OVCAR-8 = test system: OVCAR-8
CAKI-1 = test system: CAKI-1
SNB-19 = test system: SNB-19
SK-OV-3 = test system: SK-OV-3
UACC-257 = test system: UACC-257
DU-145 = test system: DU-145
MDA-MB-435 = test system: MDA-MB-435
786-0 = test system: 786-0
MCF7 = test system: MCF7
A549 = test system: A549
PC-3 = test system: PC-3
Malme-3M = test system: Malme-3M
EKVX = test system: EKVX
RXF 393 = test system: RXF 393
Hs-578T = test system: Hs-578T
LXFL 529 = test system: LXFL 529
DLD-1 = test system: DLD-1
DMS-114 = test system: DMS-114
XF498 = test system: XF498
HOP-18 = test system: HOP-18

Structure (SMILES)	GI50 (OVCAR-8)	GI50 (CAKI-1)	GI50 (SNB-19)	GI50 (SK-OV-3)	GI50 (UACC-257)	GI50 (DU-145)	GI50 (MDA-MB-435)	GI50 (786-0)	GI50 (MCF7)	GI50 (A549)	GI50 (PC-3)	GI50 (Malme-3M)	GI50 (EKVX)	GI50 (RXF 393)	GI50 (Hs-578T)	GI50 (LXFL 529)	GI50 (DLD-1)	GI50 (DMS-114)	GI50 (XF498)	GI50 (HOP-18)
N#CC1(Nc2ccc(-c3ccc(NC4(C#N)CCCC4)cc3)cc2)CCCC1	> 100 µM (inactive)	> 100 µM (inactive)	> 100 µM (inactive)	> 100 µM (inactive)	> 100 µM (inactive)	> 100 µM (inactive)	> 100 µM (inactive)	> 100 µM (inactive)	> 100 µM (inactive)	> 100 µM (inactive)	> 100 µM (inactive)	> 100 µM (inactive)	> 100 µM (inactive)	> 100 µM (inactive)	> 100 µM (inactive)					
Nc1n[nH]c(Nc2ccc(Cl)cc2)c1P(=O)(c1ccccc1)c1ccccc1	18.4 µM (inactive)	44.8 µM (inactive)	26.7 µM (inactive)	30.8 µM (inactive)	31.3 µM (inactive)	37.7 µM (inactive)	19.1 µM (inactive)		29 µM (inactive)	23.9 µM (inactive)	19.9 µM (inactive)	21.5 µM (inactive)	35.2 µM (inactive)	20.9 µM (inactive)	14.8 µM (inactive)					
Nc1nc(SCCC/C=C/I)nc2c1ncn2C1OC(COP(=O)(O)O)C(O)C1O (stereo not drawn)	> 100 µM (inactive)		> 100 µM (inactive)	> 100 µM (inactive)	> 100 µM (inactive)					> 100 µM (inactive)		> 100 µM (inactive)	> 100 µM (inactive)	> 100 µM (inactive)		> 100 µM (inactive)	> 100 µM (inactive)	> 100 µM (inactive)	> 100 µM (inactive)	
CCCCCOc1ccc(/C=N\c2ccc(CCc3ccc(/N=C/c4ccc(OCCCCC)cc4)cc3)cc2)cc1	> 100 µM (inactive)		> 100 µM (inactive)	> 100 µM (inactive)	> 100 µM (inactive)				> 100 µM (inactive)	> 100 µM (inactive)		> 100 µM (inactive)	> 100 µM (inactive)	> 100 µM (inactive)			> 100 µM (inactive)	> 100 µM (inactive)	> 100 µM (inactive)	> 100 µM (inactive)
Cn1c(=O)c2nc(NCCO)cnc2n(C)c1=O	> 100 µM (inactive)	95.5 µM (inactive)	> 100 µM (inactive)	> 100 µM (inactive)	> 100 µM (inactive)					> 100 µM (inactive)		44.7 µM (inactive)	> 100 µM (inactive)	35.6 µM (inactive)		36.5 µM (inactive)	> 100 µM (inactive)	64.1 µM (inactive)	38.9 µM (inactive)	
C[N+]1([O-])[C@H]2CC(OC(=O)[C@H](CO)c3ccccc3)C[C@H]1[C@H]1O[C@H]12 (stereo partly drawn)	> 100 µM (inactive)	> 100 µM (inactive)	> 100 µM (inactive)	> 100 µM (inactive)	> 100 µM (inactive)	> 100 µM (inactive)	> 100 µM (inactive)	> 100 µM (inactive)	> 100 µM (inactive)	> 100 µM (inactive)	> 100 µM (inactive)	> 100 µM (inactive)	> 100 µM (inactive)	> 100 µM (inactive)	> 100 µM (inactive)					
COC(=O)/C=C\n1ncc(=O)[nH]c1=O	> 100 µM (inactive)	> 100 µM (inactive)	> 100 µM (inactive)		> 100 µM (inactive)	> 100 µM (inactive)	99.5 µM (inactive)			> 100 µM (inactive)	> 100 µM (inactive)	> 100 µM (inactive)	> 100 µM (inactive)		> 100 µM (inactive)					
C=C(C)C1Cc2c(c3ccccc3n(C)c2=O)O1 (stereo not drawn)	> 100 µM (inactive)	> 100 µM (inactive)	> 100 µM (inactive)	> 100 µM (inactive)								> 100 µM (inactive)	> 100 µM (inactive)			> 100 µM (inactive)	> 100 µM (inactive)	> 100 µM (inactive)		> 100 µM (inactive)
CC(=O)Nc1ccc(Sc2nnc(NC(C)=O)s2)cc1	> 100 µM (inactive)		> 100 µM (inactive)	> 100 µM (inactive)	> 100 µM (inactive)		> 100 µM (inactive)		> 100 µM (inactive)	> 100 µM (inactive)	> 100 µM (inactive)		> 100 µM (inactive)		> 100 µM (inactive)					
N#CCCN(CCC#N)c1ccc(/C=C(/NC(=O)Nc2ccccc2Cl)NC(=O)c2cc([N+](=O)[O-])ccc2Cl)cc1	58.5 µM (inactive)	> 100 µM (inactive)	> 100 µM (inactive)	> 100 µM (inactive)						> 100 µM (inactive)		> 100 µM (inactive)	> 100 µM (inactive)	> 100 µM (inactive)		> 100 µM (inactive)	56.1 µM (inactive)	> 100 µM (inactive)	> 100 µM (inactive)	> 100 µM (inactive)
CN(C)CCCNC(=O)N/N=C\c1cccc2ccccc12	> 10 µM (inactive)			> 10 µM (inactive)		> 10 µM (inactive)			> 10 µM (inactive)	> 10 µM (inactive)	> 10 µM (inactive)	> 10 µM (inactive)	> 10 µM (inactive)	> 10 µM (inactive)	> 10 µM (inactive)					
c1ccc2c(CCNC3=NCCO3)cccc2c1	> 10 µM (inactive)	> 10 µM (inactive)	> 10 µM (inactive)	> 10 µM (inactive)		> 10 µM (inactive)	> 10 µM (inactive)		> 10 µM (inactive)	> 10 µM (inactive)	> 10 µM (inactive)	> 10 µM (inactive)	> 10 µM (inactive)	> 10 µM (inactive)	> 10 µM (inactive)					
CCOC(=O)COc1ccc(OC)c2c1C(=O)CCC2	> 100 µM (inactive)		20 µM (inactive)	> 100 µM (inactive)	> 100 µM (inactive)					> 100 µM (inactive)			> 100 µM (inactive)	> 100 µM (inactive)		> 100 µM (inactive)		> 100 µM (inactive)	> 100 µM (inactive)	> 100 µM (inactive)
CN(CCO)/N=N/c1[nH]cnc1C(N)=O	45.7 µM (inactive)		> 100 µM (inactive)	30.9 µM (inactive)	99.8 µM (inactive)					> 100 µM (inactive)		52.8 µM (inactive)	> 100 µM (inactive)	> 100 µM (inactive)		> 100 µM (inactive)	> 100 µM (inactive)	> 100 µM (inactive)	82.2 µM (inactive)	
CCN(CC)CCC(=O)NC1c2ccccc2Oc2c(C)cccc21 (stereo not drawn)	> 100 µM (inactive)		> 100 µM (inactive)	> 100 µM (inactive)	> 100 µM (inactive)			> 100 µM (inactive)		> 100 µM (inactive)			> 100 µM (inactive)	> 100 µM (inactive)		> 100 µM (inactive)	> 100 µM (inactive)	> 100 µM (inactive)	> 100 µM (inactive)	
CN(C)CCNC(=O)c1cccc2c(=O)c3ccccc3oc12	27.7 µM (inactive)		36.9 µM (inactive)	25.1 µM (inactive)	26.9 µM (inactive)				26.7 µM (inactive)	39 µM (inactive)		25 µM (inactive)	> 66.1 µM (inactive)	43.1 µM (inactive)			29.6 µM (inactive)	28.1 µM (inactive)	31.3 µM (inactive)	48 µM (inactive)
CC#CC#C/C(=C/C=CC(=O)OC)SC	> 100 µM (inactive)	> 100 µM (inactive)		> 100 µM (inactive)	> 100 µM (inactive)	> 100 µM (inactive)	> 100 µM (inactive)	> 100 µM (inactive)	> 100 µM (inactive)	> 100 µM (inactive)	> 100 µM (inactive)	> 100 µM (inactive)	> 100 µM (inactive)		> 100 µM (inactive)					
COc1ccc2c(c1)[n+]([O-])c(C(=O)C/C(=N/NC(=O)c1ccccc1O)C(=O)Nc1ccc(Cl)c(C(F)(F)F)c1)c(C)[n+]2[O-]	43.8 µM (inactive)		> 100 µM (inactive)	> 100 µM (inactive)	91.6 µM (inactive)			54.5 µM (inactive)		> 100 µM (inactive)		49.7 µM (inactive)	48.9 µM (inactive)	> 100 µM (inactive)		51.4 µM (inactive)	37.4 µM (inactive)	71.8 µM (inactive)	> 100 µM (inactive)	32.6 µM (inactive)
COc1cc(C2c3cc4c(cc3[C@@H](Nc3ccccc3)C3COC(=O)[C@H]23)OCO4)cc(OC)c1O (stereo partly drawn)	1.18 µM (inactive)	0.134 µM (active)	0.34 µM (active)	0.845 µM (active)	0.615 µM (active)				0.0715 µM (active)	0.0156 µM (active)		1.41 µM (inactive)	1.96 µM (inactive)	1.73 µM (inactive)			1.66 µM (inactive)	0.687 µM (active)	1.03 µM (active)	0.853 µM (active)
Nc1ccccc1SCc1csc(-c2ccc(Cl)cc2)n1	30.5 µM (inactive)	51.3 µM (inactive)	32.3 µM (inactive)	31.7 µM (inactive)	26.5 µM (inactive)	34.5 µM (inactive)	18.2 µM (inactive)	19.9 µM (inactive)	23.8 µM (inactive)	24.5 µM (inactive)	19.8 µM (inactive)	20.3 µM (inactive)	25.9 µM (inactive)	24.5 µM (inactive)	28.2 µM (inactive)					
